Test results taken from patent US20230167073A1 (Teijin Pharma Limited, priority 2020, published 2023).

molecular target: T1, Human TRPC6 (Homo sapiens, UniProt Q9Y210); test: Evaluation of TRPC6 channel inhibitory activity (1), FLIPR Calcium 5 Assay Kit, OAG stimulation (Compound Nos. 1-1293); type: cell-based; conditions: Human TRPC6 stably-expressing cells, OAG 30 μM, FLIPR Calcium 5 Assay Kit; read-out: Inhibitory activity (pIC50 class) (converted)
T1 construct: expressed in transfected cells
T1 sequence (Q9Y210 1-931): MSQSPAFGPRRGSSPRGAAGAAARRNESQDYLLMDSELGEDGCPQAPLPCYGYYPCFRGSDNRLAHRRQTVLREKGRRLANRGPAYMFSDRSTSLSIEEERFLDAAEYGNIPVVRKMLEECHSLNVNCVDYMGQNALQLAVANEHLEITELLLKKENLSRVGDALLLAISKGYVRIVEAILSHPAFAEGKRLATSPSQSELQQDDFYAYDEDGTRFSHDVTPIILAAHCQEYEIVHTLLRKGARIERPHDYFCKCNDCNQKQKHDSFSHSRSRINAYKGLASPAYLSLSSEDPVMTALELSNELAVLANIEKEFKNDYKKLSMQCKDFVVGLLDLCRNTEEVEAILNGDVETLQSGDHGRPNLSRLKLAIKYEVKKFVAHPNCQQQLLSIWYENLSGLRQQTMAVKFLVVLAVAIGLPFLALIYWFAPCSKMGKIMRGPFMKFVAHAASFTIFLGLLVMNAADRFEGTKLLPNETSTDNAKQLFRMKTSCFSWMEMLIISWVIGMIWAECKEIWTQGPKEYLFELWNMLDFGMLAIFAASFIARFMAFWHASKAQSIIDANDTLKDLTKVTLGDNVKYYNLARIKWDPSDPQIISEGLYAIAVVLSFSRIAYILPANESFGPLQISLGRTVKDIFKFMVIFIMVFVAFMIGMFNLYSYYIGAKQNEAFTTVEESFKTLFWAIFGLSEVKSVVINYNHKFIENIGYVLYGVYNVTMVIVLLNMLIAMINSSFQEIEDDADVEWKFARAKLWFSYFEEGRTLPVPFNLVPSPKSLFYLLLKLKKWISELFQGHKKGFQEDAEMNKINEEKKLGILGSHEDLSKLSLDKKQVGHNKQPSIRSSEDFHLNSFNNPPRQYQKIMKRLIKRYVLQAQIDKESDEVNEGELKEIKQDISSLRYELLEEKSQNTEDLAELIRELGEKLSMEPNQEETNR
Procedure, shortened: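 Stable human TRPC6 line; fluorescent Ca2+ dye loading, then 20 min compound exposure before 30 μM OAG trigger. Peak-minus-baseline signal converted to % inhibition against untreated and unstimulated wells; potency given as pIC50 band.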

Row | SMILES | IC50 [nM]
1 | CCN(CC(F)F)c1cc(Oc2cc(C#N)ccc2-c2ncc(CCN)cn2)n(C)n1 [Compound No. 875, 4-[5-(2-Aminoethyl)pyrimidin-2-yl]-3-[5-[2,2-difluoroethyl(ethyl)amino]-2-methylpyrazol-3-yl]oxybenzonitrile] | < 10
2 | Cn1nc(-c2cnccn2)cc1Oc1cc(C#N)ccc1-c1ncc(CN)cn1 [Compound No. 931, 4-[5-(Aminomethyl)pyrimidin-2-yl]-3-(2-methyl-5-pyrazin-2-ylpyrazol-3-yl)oxybenzonitrile] | 10 to 1000
3 | Cc1nn(CC(C)C)cc1Oc1cc(F)ccc1-c1ncc(CCN)cn1 [Compound No. 966, 2-[2-[4-Fluoro-2-[3-methyl-1-(2-methylpropyl)pyrazol-4-yl]oxyphenyl]pyrimidin-5-yl]ethanamine] | < 10
4 | Cc1c(Oc2cc(F)ccc2-c2ncc(CCN)cn2)cnn1CC(C)C [Compound No. 967, 2-[2-[4-fluoro-2-[5-methyl-1-(2-methylpropyl)pyrazol-4-yl]oxyphenyl]pyrimidin-5-yl]ethanamine] | 10 to 1000
5 | Cn1nc(N2CCOCC2)cc1C(=O)c1cc(C#N)ccc1-c1ncc(CN)cn1 [Compound No. 1028, 4-[5-(Aminomethyl)pyrimidin-2-yl]-3-(2-methyl-5-morpholin-4-ylpyrazole-3-carbonyl)benzonitrile] | < 10
6 | Cn1nc(C(C)(C)C)cc1C(=O)c1cc(C#N)ccc1-c1ncc(CN)cn1 [Compound No. 1030, 4-[5-(Aminomethyl)pyrimidin-2-yl]-3-(5-tert-butyl-2-methylpyrazole-3-carbonyl)benzonitrile] | < 10
7 | Cc1cc(C(=O)c2cc(C#N)ccc2-c2ncc(CCN)cn2)cc(N2CCOCC2)n1 [Compound No. 1042, 4-[5-(2-Aminoethyl)pyrimidin-2-yl]-3-(2-methyl-6-morpholin-4-ylpyridine-4-carbonyl)benzonitrile] | < 10
8 | Cc1nc(N2CCOCC2)sc1C(=O)c1cc(C#N)ccc1-c1ncc(CN)cn1 [Compound No. 1064, 4-[5-(Aminomethyl)pyrimidin-2-yl]-3-(4-methyl-2-morpholin-4-yl-1,3-thiazole-5-carbonyl)benzonitrile] | 10 to 1000
9 | N#Cc1ccc(-c2ccc(CCN)cn2)c(Cn2cnc(-c3ccccc3)c2)c1 [Compound No. 1131, 4-[5-(2-Aminoethyl)pyridin-2-yl]-3-[(4-phenylimidazol-1-yl)methyl]benzonitrile] | < 10
10 | Cc1nc(CN2CCCCC2)cn1Cc1cc(C#N)ccc1-c1ncc(CCN)cn1 [Compound No. 1179, 4-[5-(2-Aminoethyl)pyrimidin-2-yl]-3-[[2-methyl-4-(piperidin-1-ylmethyl)imidazol-1-yl]methyl]benzonitrile] | > 1000
11 | N#Cc1ccc(-c2ncc(CCN)cn2)c(Cn2cc(C3CC3)nn2)c1 [Compound No. 1187, 4-[5-(2-Aminoethyl)pyrimidin-2-yl]-3-[(4-cyclopropyltriazol-1-yl)methyl]benzonitrile] | < 10
12 | CC(C)Cn1cc(Cc2cc(C#N)ccc2-c2ncc(CCN)cn2)cn1 [Compound No. 1195, 4-[5-(2-Aminoethyl)pyrimidin-2-yl]-3-[[1-(2-methylpropyl)pyrazol-4-yl]methyl]benzonitrile] | < 10
13 | N#Cc1ccc(-c2ncc(CCN)cn2)c(Cn2cc(N3CCCC3)cn2)c1 [Compound No. 1198, 4-[5-(2-Aminoethyl)pyrimidin-2-yl]-3-[(4-pyrrolidin-1-ylpyrazol-1-yl)methyl]benzonitrile] | 10 to 1000
14 | Cc1nc(C(C)c2cc(C#N)ccc2-c2ccc(CCN)cc2)cc(N2CCOCC2)n1 (stereo not shown) [Compound No. 1226, 4-[4-(2-Aminoethyl)phenyl]-3-[1-(2-methyl-6-morpholin-4-ylpyrimidin-4-yl)ethyl]benzonitrile] | 10 to 1000
15 | Cc1nc(N2CCOCC2)cc(C2(c3cc(C#N)ccc3-c3ccc(CCN)cc3)CC2)n1 [Compound No. 1227, 4-[4-(2-Aminoethyl)phenyl]-3-[1-(2-methyl-6-morpholin-4-ylpyrimidin-4-yl)cyclopropyl]benzonitrile] | 10 to 1000
16 | COC(c1cc(-c2nccs2)no1)c1cc(C#N)ccc1-c1ccc(CCN)cc1 (stereo not shown) [Compound No. 1232, 4-[4-(2-Aminoethyl)phenyl]-3-[methoxy-[3-(1,3-thiazol-2-yl)-1,2-oxazol-5-yl]methyl]benzonitrile] | > 1000
17 | Cn1nc(C(C)(C)C)cc1C(OCC#N)c1cc(C#N)ccc1-c1ncc(CCN)cn1 (stereo not shown) [Compound No. 1237, 4-[5-(2-Aminoethyl)pyrimidin-2-yl]-3-[(5-tert-butyl-2-methylpyrazol-3-yl)-(cyanomethoxy)methyl]benzonitrile] | < 10
18 | N#Cc1ccc(-c2ccc(CCN)cc2)c(Sc2cnnc(N3CCCCC3)c2)c1 [Compound No. 1240, 4-[4-(2-Aminoethyl)phenyl]-3-(6-piperidin-1-ylpyridazin-4-yl)sulfanylbenzonitrile] | < 10
19 | N#Cc1ccc(-n2cc(CCN)cn2)c(Sc2cnnc(N3CCCCC3)c2)c1 [Compound No. 1246, 4-[4-(2-Aminoethyl)pyrazol-1-yl]-3-(6-piperidin-1-ylpyridazin-4-yl)sulfanylbenzonitrile] | 10 to 1000
20 | N#Cc1ccc(-c2ncc(CCN)cn2)c([S+]([O-])c2cnnc(N3CCCCC3)c2)c1 (stereo not shown) [Compound No. 1276, 4-[5-(2-Aminoethyl)pyrimidin-2-yl]-3-(6-piperidin-1-ylpyridazin-4-yl)sulfinylbenzonitrile] | > 1000
21 | Cn1nc(-c2ccccc2)cc1Oc1cc(C#N)ncc1-c1ccc(CCN)cn1 [Compound No. 1277, 5-[5-(2-Aminoethyl)pyridin-2-yl]-4-(2-methyl-5-phenylpyrazol-3-yl)oxypyridine-2-carbonitrile] | 10 to 1000
22 | Cn1nc(-c2ccccc2)cc1Oc1nc(C#N)ccc1-c1ccc(CCN)cn1 [Compound No. 1279, 5-[5-(2-Aminoethyl)pyridin-2-yl]-6-(2-methyl-5-phenylpyrazol-3-yl)oxypyridine-2-carbonitrile] | < 10
23 | Cn1nc(-c2ccccn2)cc1Oc1cc(C#N)cnc1-c1ccc(CN)cn1 [Compound No. 1289, 6-[5-(Aminomethyl)pyridin-2-yl]-5-(2-methyl-5-pyridin-2-ylpyrazol-3-yl)oxypyridine-3-carbonitrile] | > 1000
24 | Cc1nc(Oc2cc(C#N)ccc2-c2ncc(CCN)cn2)cc(N2CC(F)(F)C2)n1 [compound 296, 4-[5-(2-aminoethyl)pyrimidin-2-yl]-3-[6-(3,3-difluoroazetidin-1-yl)-2-methylpyrimidin-4-yl]oxybenzonitrile] | < 10
25 | CC(C)(N)Cc1ccc(-c2ccc(C#N)cc2Oc2cnnc(N3CCOCC3)c2)cc1 [compound 297, 4-[4-(2-amino-2-methylpropyl)phenyl]-3-(6-morpholin-4-ylpyridazin-4-yl)oxybenzonitrile] | 10 to 1000
26 | Cc1nc(Oc2cc(C#N)ccc2-n2cc(CN)cn2)cc(N2CCOCC2)n1 [compound 298, 4-[4-(aminomethyl)pyrazol-1-yl]-3-(2-methyl-6-morpholin-4-ylpyrimidin-4-yl)oxybenzonitrile] | 10 to 1000
27 | Cc1cc(Oc2cc(C#N)ccc2-c2ccc(CCN)cn2)n(C)n1 [compound 299, 4-[5-(2-aminoethyl)pyridin-2-yl]-3-(2,5-dimethylpyrazol-3-yl)oxybenzonitrile] | < 10
28 | Cn1nccc1Oc1cc(C#N)ccc1-c1ccc(CCN)cn1 [compound 300, 4-[5-(2-aminoethyl)pyridin-2-yl]-3-(2-methylpyrazol-3-yl)oxybenzonitrile] | 10 to 1000
